The test system of one data set is PC-3 (Prostate). Kind of data set: MTT test, overall cell growth. It is filed as cell-based, human. The following applies: PC-3 cell line. The method, then:
(§1) In order to characterize the in vitro activities of the compounds according to the invention, MTT tests were carried out. The MTT test, which is a well-known test in the art, is an indirect technique that rapidly measures, i.e. within 5 days, the effect of a given product on the overall cell growth. This test measures the number of metabolically active living cells that are able to transform the MTT product (3-(4,5-dimethylthiazol-2-yl)-2,5 diphenyl tetrazolium bromide), having a yellowish color, to the blue product formazan dye by mitochondrial reduction. The amount of formazan obtained at the end of the experiment is measured with a spectrophotometer and is directly proportional to the number of living cells. Determination of the optical density enables a quantitative measurement of the effect of the investigated compounds as compared to the control condition (untreated cells) and to compare it to other reference compound. […]
(§2) After 72 hours of incubation at 37° C. with the compound (experimental conditions) or without the compound (control condition), the medium was replaced by 100 μl MTT at the concentration of 1 mg/ml dissolved in RPMI. […] The micro wells were shaken for 5 minutes and read on a spectrophotometer at the wavelengths of 570 nm corresponding to the maximum formazan absorbance wavelength, and of 630 nm, which is the background noise wavelength. […]

The next data set concerns Capan-2 (Pancreas). Kind of data set: MTT test, overall cell growth. The following applies: Capan-2 cell line. It is filed as cell-based, human. Here is the method: as §1, §2
(In general: Tetrazolium assays rely on reduction of a dye to a coloured formazan, in cell work by metabolically active cells.)

Another data set relates to C32 (melanoma cancer). Kind of data set: Sub-cutaneous melanoma cancer model. It is filed as in vivo, mice. The following applies: for T/C index: three times a week. The method, then:
Three types of results were obtained with in vivo anti-tumor pharmacology: 1) the cumulative toxicity of chemotherapeutic administrations through recording the weights of the tumor-bearing mice during treatment, 2) the actual anti-tumor effect exerted at tumor growth level. If the tumor models are grafted subcutaneously (s.c.), tumor size is measured three times a week by means of a caliper and expressed as an area (mm^2) by multiplying together the two largest perpendicular diameters, and 3) the gain in survival for the animals treated, which is evaluated by means of the T/C index. This index is the ratio between the median survival time of the group of treated animals (T) and that of the control group. The drug is considered to be active if the T/C value is above 130% (P<0.05), and toxic for a value lower than 70%.
The antitumoral activity of compound B was evaluated in different xenografted models: sub-cutanous model: MCF-7-TD5 (breast cancer) and C32 (melanoma cancer) and orthotopic model: A549 (lung cancer).
Experimental melanomas were set up in mice by painting their skins with a carcinogen. These experimental melanomas display certain morphological characteristics close to those of human melanomas but are less aggressive biologically. Compound B was assayed at DMT/4 (20 mg/kg), DMT/8 (10 mg/kg) and DMT/16 (5 mg/kg) three times a week. […] Indeed the T/C index values measured were respectively 95%, 107% and 81%.

A short description of data set [1]: Maximum Tolerated Dose in healthy mice. It is filed as in vivo. To be noted: single administration in mice, healthy animals, 14 days post-injection. The method, then:
The Maximum Tolerated Dose (MTD) of a given drug is defined as the maximum amount of a drug which can be administered acutely (i.e. in one i.p., i.v., s.c. or per os single dose) to healthy animals, i.e. animals not grafted with tumors. The survival times and weights of the animals are recorded up to 14 days post-injection. Five different doses of each drug are used for the determination of the MTD index. When the MTD index is higher than 160 mg/kg (i.p. administration) the drug is usually considered to be non-toxic, and the highest dose administered to tumor-bearing mice is MTD/2=80 mg/kg. Each experimental group was composed of 3 mice for the determination of the MTD index.

For the next data set, the system named is Hs683. Kind of data set: MTT test, overall cell growth. It is filed as cell-based, human. Here is the method: (§3) In order to characterize the in vitro activities of the compounds according to the invention, MTT tests were carried out. The MTT test, which is a well-known test in the art, is an indirect technique that rapidly measures, i.e. within 5 days, the effect of a given product on the overall cell growth. This test measures the number of metabolically active living cells that are able to transform the MTT product (3-(4,5-dimethylthiazol-2-yl)-2,5 diphenyl tetrazolium bromide), having a yellowish color, to the blue product formazan dye by mitochondrial reduction. The amount of formazan obtained at the end of the experiment is measured with a spectrophotometer and is directly proportional to the number of living cells. Determination of the optical density enables a quantitative measurement of the effect of the investigated compounds as compared to the control condition (untreated cells) and to compare it to other reference compound. In the following examples different compounds according to the invention were tested and compared to the reference compound being uscharin.
(§4) Six human cancer cell lines, described in Table C, were tested in the presence of compounds according to the invention. These cell lines covered four histological cancer types, being Glioma, colon, lung and bladder cancer. The cells were allowed to grow in 96-well micro wells with a flat bottom with an amount of 100 μl of cell suspension per well in reason to 4000 cells/well depending on cell type. Each cell line was seeded in its own cell culture medium (Table C).
(§5) After a 24-hour period of incubation at 37° C., the culture medium is replaced by 100 μl of fresh medium in which the compound to be tested has been dissolved at different required concentrations. Different compounds were tested at 10^−9 M, 5×10^−9 M, 10^−8 M, 5×10^−8 M, 10^−7 M, 5×10^−7 M, 10^−6 M, 5×10^−6 M et 10^−5 M. Each experimental condition is carried out in hexaplicate. The compounds tested are 2″ oxo-voruscharin, and compounds B, C, D, E, H and I represented in Table B above.
(§6) After 72 hours of incubation at 37° C. with the compound (experimental conditions) or without the compound (control condition), the medium was replaced by 100 μl MTT at the concentration of 1 mg/ml dissolved in RPMI. The micro wells were subsequently incubated during 3 hours at 37° C. and centrifuged at 400 g during 10 minutes. The MTT was removed and formazan crystals formed, were dissolved in 100 μl DMSO. The micro wells were shaken for 5 minutes and read on a spectrophotometer at the wavelengths of 570 nm corresponding to the maximum formazan absorbance wavelength, and of 630 nm, which is the background noise wavelength.
(§7) For each experimental condition, the mean OD associated with the SEM (standard error of the mean) for each condition (6 wells) was calculated. The percentage of remaining living cells in comparison with the control was calculated. Results of these experiments are represented in FIGS. 2 to 8.

Another data set deals with J82. Put plainly: MTT test, overall cell growth. It is filed as cell-based, human. The method, then: as §3, §4, §5, §6, §7
The next data set relates to LoVo. Put plainly: MTT test, overall cell growth. The following applies: 72 hours of incubation. It is filed as cell-based, human. Here is the method: as §3, §4, §5, §6, §7
Another data set concerns A549. Put plainly: MTT test, overall cell growth. It is filed as cell-based, human. To be noted: 72 hours of incubation. The method, then: as §3, §4, §5, §6, §7
A further data set deals with U-373 MG. Kind of data set: MTT test, overall cell growth. The following applies: U-373, MTT, 72 hours of incubation. It is filed as cell-based, human. The method, then:
as §3, §4, §5, §6, §7

The subject of a further data set is HCT-15. Kind of data set: MTT test, overall cell growth. It is filed as cell-based, human. The method, then: as §3, §4, §5, §6, §7

Read-outs that look alike come from different tables or passages of the source.

Turning to `CC1CC2(NC(=O)CS2)C2(O)OC3CC4(CO)C(CCC5C4CCC4(C)C(C6=CC(=O)OC6)CCC54O)CC3OC2O1` (stereo not drawn) [Compound B], the IC50 is 5 to 10 nM in the data set with PC-3 (Prostate); 1 nM with Capan-2 (Pancreas); 1000 to 5000 nM in the data set with Hs683 (Hs683, MTT, 72 hours of incubation, read-out: IC50 value); 5000 to 10000 nM in the data set with J82 (J82, MTT, 72 hours of incubation, read-out: IC50 value); 1 to 5 nM with LoVo; 10 nM in the data set on A549. Moreover, the half-inhibitory concentration (IC50) in the data set on U-373 MG was in the range of 10 to 50 nM; in the data set on HCT-15 (HCT-15, MTT, 72 hours of incubation, read-out: IC50 value), 10 to 50 nM. For the same molecule, the T/C index in the data set with C32 (melanoma cancer) (C32, 21×5 mg/kg) was found to be 81%; with C32 (melanoma cancer) (C32, 25×20 mg/kg), 95%; in the data set with C32 (melanoma cancer) (C32, 28×10 mg/kg) it was 107%. In addition, the tumor area entry with C32 (melanoma cancer) (C32-tumor bearing mice, most important effect at 10 mg/kg) is “decreased the tumor area”. For the same molecule, the “weight of C32-tumor bearing mice (toxic side effects)” value in the data set with C32 (melanoma cancer) (constant administration, 20, 10 and 5 mg/kg) was “did not loose any significant weight”. For the same molecule, the MTD index in data set [1] stood at 80 mg/kg.

`CC1CC2(NC(=O)CS2)C2(O)OC3CC4(C=O)C(CCC5C4CCC4(C)C(C6=CC(=O)OC6)CCC54O)CC3OC2O1` (stereo not drawn) [2″oxo-voruscharin, 2″ oxo-voruscharin] gave an MTD index in data set [1] of 20 mg/kg. Moreover, the IC50 is 1 to 5 nM in the data set with Hs683 (Homo sapiens, Hs 683, Hs683, MTT, 72 hours of incubation, read-out: IC50 value); 170 nM with Hs683 (Homo sapiens, Hs 683, Hs683, Table E, concentration used for flow cytometry, chosen in accordance with MTT results, read-out: IC50); greater than 10000 nM in the data set on J82 (Homo sapiens, J82, MTT, 72 hours of incubation, read-out: IC50 value); 4100 nM in the data set on J82 (Homo sapiens, J82, Table E, concentration used for flow cytometry, chosen in accordance with MTT results, read-out: IC50); 5 to 10 nM in the data set with LoVo (Homo sapiens); 10 to 50 nM in the data set on A549 (Homo sapiens). Further, the IC50 is 10 to 50 nM in the data set on U-373 MG (Homo sapiens, U373 MG); 10 to 50 nM in the data set with HCT-15 (Homo sapiens, HCT-15, MTT, 72 hours of incubation, read-out: IC50 value); 12 nM in the data set with HCT-15 (Homo sapiens, HCT-15, Table E, concentration used for flow cytometry, chosen in accordance with MTT results, read-out: IC50). Moreover, the IC30 with Hs683 (Hs683, Table E, concentration which kills 30% of the cell population) was 8.3 nM; with J82 (J82, Table E, concentration which kills 30% of the cell population), 1700 nM; with HCT-15 (HCT-15, Table E, concentration which kills 30% of the cell population), 4.1 nM.

As a reminder, the IC50 is the point on the concentration scale where inhibition reaches its midpoint. The term IC30 denotes the concentration needed for an effect of 30%. A lower IC30 goes with greater potency.

The values above are taken from US7981875B2, “2″ oxo-voruscharin and derivatives thereof” (priority 2002, dated 2011).
